For the assay, the system named is P335 leukemia ip, BDF1 mice, survival T/C %. The assay is described as follows: NCI In Vivo Anticancer Drug Screen. Data for tumor model P335 Leukemia (intraperitoneal) in B6D2F1 (BDF1) mice. The note with it: endpoint: mean survival time, higher = longer survival. As for the experimental part: The antitumor activity of compounds was measured in mice bearing transplantable tumors. Survival or tumor size were measured and the results are expressed as the measurement made in the treated group (T) divided by the measurement made in the vehicle treated control group (C). The tumor model used in this assay is P335 Leukemia (intraperitoneal) in B6D2F1 (BDF1) mice

[1] abbreviates: dose: 25.0 mg/kg/injection, schedule: Q01DX Z (ip), vehicle: carboxymethylcellulose (CMC).
Where [2] appears, read: dose: 50.0 mg/kg/injection, schedule: Q01DX Z (ip), vehicle: carboxymethylcellulose (CMC).
Where [3] appears, read: dose: 0.63 mg/kg/injection, schedule: Q01DX Z (ip), vehicle: carboxymethylcellulose (CMC).

Several values for one entry are separate records, joined by “and”; a condition that tells them apart may be missing. Identical values can stand only once. Toxic doses and inconclusive results are not listed.

Regarding `C[C@@H]1C[C@H]2CC[C@H](O2)[C@H](C)C(=O)O[C@@H](C)C[C@@H]2CC[C@@H](O2)[C@@H](C)C(=O)O[C@H](C)C[C@H]2CC[C@H](O2)[C@H](C)C(=O)O[C@@H](C)C[C@@H]2CC[C@@H](O2)[C@@H](C)C(=O)O1`, the T/C was 96 % of control under setting [1]; 88 % of control under setting [2]; 86 % of control (dose: 100.0 mg/kg/injection, schedule: Q01DX Z (ip), vehicle: carboxymethylcellulose (CMC)).

Consider `CSc1ncnc2c1ncn2C1OC(CO)C(O)C1O` (stereo unspecified), for which the T/C by setting is: (dose: 3.1 mg/kg/injection, schedule: Q01DX Z (ip), vehicle: carboxymethylcellulose (CMC)) 93 % of control; (dose: 6.25 mg/kg/injection, schedule: Q01DX Z (ip), vehicle: carboxymethylcellulose (CMC)) 110 % of control; under setting [1], 179 % of control; under setting [2], 104 % of control.

For the compound `Nc1nc(N)c2nc(CNc3ccc(C(=O)NC(CCC(=O)O)C(=O)O)cc3)cnc2n1` (stereo unspecified), the T/C was 96 % of control (dose: 16.0 micrograms/kg/injection, schedule: Q01DX Z (ip), vehicle: alkali diluted with saline); 121 % of control (dose: 31.0 micrograms/kg/injection, schedule: Q01DX Z (ip), vehicle: alkali diluted with saline); 169 % of control (dose: 62.0 micrograms/kg/injection, schedule: Q01DX Z (ip), vehicle: alkali diluted with saline); 96 % of control (dose: 63.0 micrograms/kg/injection, schedule: Q01DX Z (ip), vehicle: alkali diluted with saline); 98 % of control (dose: 250.0 micrograms/kg/injection, schedule: Q01DX Z (ip), vehicle: alkali diluted with saline).

For the compound `CS(=O)(=O)OCC(O)C(O)COS(C)(=O)=O` (stereo unspecified), the T/C is, setting by setting: (dose: 187.5 mg/kg/injection, schedule: Q01DX Z (ip), vehicle: saline) 96 % of control; (dose: 375.0 mg/kg/injection, schedule: Q01DX Z (ip), vehicle: saline) 111 % of control; (dose: 750.0 mg/kg/injection, schedule: Q01DX Z (ip), vehicle: saline) 102 % of control.

For `CN(Cc1cnc2nc(N)nc(N)c2n1)c1ccc(C(=O)N[C@@H](CCC(=O)O)C(=O)O)cc1`, the T/C by setting is: (dose: 0.31 mg/kg/injection, schedule: Q01DX Z (ip), vehicle: other) 110 % of control; (dose: 3.0 mg/kg/injection, schedule: Q01DX Z (ip), vehicle: other) 88 % of control.

`S=c1nc[nH]c2nc[nH]c12`: the T/C (dose: 37.5 mg/kg/injection, schedule: Q01DX Z (ip), vehicle: other) is 116 % of control; the T/C (dose: 75.0 mg/kg/injection, schedule: Q01DX Z (ip), vehicle: other) was 114 % of control; the T/C (dose: 300.0 mg/kg/injection, schedule: Q01DX Z (ip), vehicle: other) was 122 % of control.

For `S=P(N1CC1)(N1CC1)N1CC1`, the T/C (dose: 0.37 mg/kg/injection, schedule: Q01DX Z (ip), vehicle: saline) is 107 % of control; the T/C (dose: 0.75 mg/kg/injection, schedule: Q01DX Z (ip), vehicle: saline) was 109 % of control; the T/C (dose: 1.5 mg/kg/injection, schedule: Q01DX Z (ip), vehicle: saline) was 104 % of control; the T/C (dose: 3.0 mg/kg/injection, schedule: Q01DX Z (ip), vehicle: saline) was 112 % of control.

As for `CC1CCOS(=O)O1` (stereo unspecified), the T/C is, setting by setting: (dose: 10.0 mg/kg/injection, schedule: Q01DX Z (ip), vehicle: carboxymethylcellulose (CMC)) 91 % of control; (dose: 20.0 mg/kg/injection, schedule: Q01DX Z (ip), vehicle: carboxymethylcellulose (CMC)) 113 % of control; (dose: 40.0 mg/kg/injection, schedule: Q01DX Z (ip), vehicle: carboxymethylcellulose (CMC)) 117 % of control; (dose: 80.0 mg/kg/injection, schedule: Q01DX Z (ip), vehicle: carboxymethylcellulose (CMC)) 107 % of control.

For `CSCS(=O)C[C@H](CO)NC(=O)/C=C/c1c(C)[nH]c(=O)[nH]c1=O` (stereo partly specified), the T/C reads like this: (dose: 0.12 mg/kg/injection, schedule: Q01DX Z (ip), vehicle: saline) 100 % of control; (dose: 0.25 mg/kg/injection, schedule: Q01DX Z (ip), vehicle: saline) 107 % of control; (dose: 0.5 mg/kg/injection, schedule: Q01DX Z (ip), vehicle: saline) 105 % of control; (dose: 1.0 mg/kg/injection, schedule: Q01DX Z (ip), vehicle: saline) 110 % of control.

`COC12C(COC(N)=O)C3=C(C(=O)C(C)=C(N)C3=O)N1CC1C2N1C` (stereo unspecified): the T/C runs as follows: under setting [3], 110 % of control; (dose: 5.0 mg/kg/injection, schedule: Q01DX Z (ip), vehicle: carboxymethylcellulose (CMC)) 160 % of control and 168 % of control.

Take `OCC1OC(n2cnc3c(Cl)ncnc32)C(O)C1O` (stereo unspecified): the T/C runs as follows: (dose: 7.8 mg/kg/injection, schedule: Q01DX Z (ip), vehicle: carboxymethylcellulose (CMC)) 101 % of control; (dose: 15.6 mg/kg/injection, schedule: Q01DX Z (ip), vehicle: carboxymethylcellulose (CMC)) 105 % of control.

In the case of `Cn1cnc([N+](=O)[O-])c1Sc1ncnc2nc[nH]c12`, the T/C is 89 % of control (dose: 12.5 mg/kg/injection, schedule: Q01DX Z (ip), vehicle: carboxymethylcellulose (CMC)); 105 % of control under setting [1]; 115 % of control under setting [2].

Turning to `CC[C@@H](c1ccc(O)cc1)[C@@H](CC)c1ccc(O)cc1`, the T/C is, setting by setting: (dose: 16.0 mg/kg/injection, schedule: Q01DX Z (sc), vehicle: steriod suspending solution) 96 % of control; (dose: 31.25 mg/kg/injection, schedule: Q01DX Z (sc), vehicle: steriod suspending solution) 93 % of control; (dose: 125.0 mg/kg/injection, schedule: Q01DX Z (sc), vehicle: steriod suspending solution) 96 % of control; (dose: 500.0 mg/kg/injection, schedule: Q01DX Z (sc), vehicle: steriod suspending solution) 104 % of control; (dose: 1000.0 mg/kg/injection, schedule: Q01DX Z (sc), vehicle: steriod suspending solution) 95 % of control.

Consider `CN(C)c1nc(N(C)C)nc(N(C)C)n1`, for which the T/C reads like this: (dose: 31.25 mg/kg/injection, schedule: Q01DX Z (ip), vehicle: carboxymethylcellulose (CMC)) 113 % of control; (dose: 62.5 mg/kg/injection, schedule: Q01DX Z (ip), vehicle: carboxymethylcellulose (CMC)) 111 % of control; (dose: 125.0 mg/kg/injection, schedule: Q01DX Z (ip), vehicle: carboxymethylcellulose (CMC)) 113 % of control; (dose: 500.0 mg/kg/injection, schedule: Q01DX Z (ip), vehicle: carboxymethylcellulose (CMC)) 111 % of control; (dose: 1000.0 mg/kg/injection, schedule: Q01DX Z (ip), vehicle: carboxymethylcellulose (CMC)) 93 % of control.

Regarding `CCCCn1cnc2c(=S)nc[nH]c21`, the T/C (dose: 0.4 mg/kg/injection, schedule: Q01DX Z (ip), vehicle: carboxymethylcellulose (CMC)) was 89 % of control; the T/C (dose: 0.8 mg/kg/injection, schedule: Q01DX Z (ip), vehicle: carboxymethylcellulose (CMC)) was 87 % of control; the T/C (dose: 1.6 mg/kg/injection, schedule: Q01DX Z (ip), vehicle: carboxymethylcellulose (CMC)) was 87 % of control.

Consider `Nc1nc(=S)c2ncn(C3OC(CO)C(O)C3O)c2[nH]1` (stereo unspecified), for which the T/C was 93 % of control (dose: 0.16 mg/kg/injection, schedule: Q01DX Z (ip), vehicle: carboxymethylcellulose (CMC)); 117 % of control (dose: 0.31 mg/kg/injection, schedule: Q01DX Z (ip), vehicle: carboxymethylcellulose (CMC)); 90 % of control under setting [3]; 90 % of control (dose: 1.25 mg/kg/injection, schedule: Q01DX Z (ip), vehicle: carboxymethylcellulose (CMC)).

Turning to `O=C(Nc1ccc(C2=NCCN2)cc1)c1ccc(C(=O)Nc2ccc(C3=NCCN3)cc2)c(Cl)c1`, the T/C was 92 % of control (dose: 3.75 mg/kg/injection, schedule: Q01DX Z (ip), vehicle: water); 120 % of control (dose: 7.5 mg/kg/injection, schedule: Q01DX Z (ip), vehicle: water); 157 % of control (dose: 15.0 mg/kg/injection, schedule: Q01DX Z (ip), vehicle: water); 156 % of control and 206 % of control (dose: 30.0 mg/kg/injection, schedule: Q01DX Z (ip), vehicle: water); 86 % of control (dose: 60.0 mg/kg/injection, schedule: Q01DX Z (ip), vehicle: water).

With `Nc1nc(=S)c2[nH]cnc2[nH]1`, the T/C reads like this: (dose: 0.12 mg/kg/injection, schedule: Q01DX Z (ip), vehicle: carboxymethylcellulose (CMC)) 92 % of control; (dose: 0.25 mg/kg/injection, schedule: Q01DX Z (ip), vehicle: carboxymethylcellulose (CMC)) 95 % of control; (dose: 0.5 mg/kg/injection, schedule: Q01DX Z (ip), vehicle: carboxymethylcellulose (CMC)) 95 % of control; (dose: 1.0 mg/kg/injection, schedule: Q01DX Z (ip), vehicle: carboxymethylcellulose (CMC)) 101 % of control; (dose: 2.0 mg/kg/injection, schedule: Q01DX Z (ip), vehicle: carboxymethylcellulose (CMC)) 95 % of control.

(Values after PubChem BioAssay AID224 (DTP/NCI, 2004).)
